Results published in patent publication US12180220B2, “Heteroaryl modulators of RAS GTPase” (Tosk, Inc., priority 2020, dated 2024).

Test system: SW620 Cell Lines
Assay: Cell proliferation / cytotoxicity assay (CellTiter-Glo 2.0)
Format: cell-based
Conditions: Homo sapiens, SW-620; 72 hours incubation, luminescence (CellTiter-Glo 2.0), 2-fold dilutions starting at 50 μM
Description: Compounds are assayed for inhibition of cell proliferation and killing cancer cells. Cytotoxicity assays are conducted according to the following general procedure. […] cells (ATCC CCL-227) are maintained in DMEM Low Glucose (Corning 10-014-CV) media supplemented with 10% fetal bovine serum and 1% PenStrep and grown at 37° C. in 5% CO2. Cells are plated into 96 well flat bottom plates (2 million/plate, ˜20,000/well, 200 μL media/well). The cells are allowed to settle and adhere to the plate bottom overnight. Compounds are diluted in media from a 10 mM stock solution starting at 50 μM, using 2-fold dilutions, in a column in a 96-well plate. Media is removed from the plate containing cells and replaced with media containing diluted compounds. Plates are incubated 72 hours at 37° C. in 5% CO2. Plates are allowed to come to room temperature and 100 μL CellTiter-Glo 2.0 reagent (Promega, G924C) is added at room temperature. Plates are shaken for 2 minutes, then allowed to stand for 15 minutes. Luminescence is read with FLx800 (BioTek Instruments). Data is plotted with GraphPad Prizm 8.0.

Structure (SMILES)	IC50
Cc1ccc2ccc(F)c(-c3ccc4nc(NC5CCN(C(=O)OC(C)(C)C)CC5)nc(C)c4c3)c2n1 [Compound 1C]	< 5 µM
Cc1ccc2ccc(F)c(-c3ccc4nc(NC5CCN(C(=O)OC(C)C)CC5)nc(C)c4c3)c2n1 [Compound 2C]	5 to 10 µM
Cc1nc(N[C@H]2CC[C@@H](NC(=O)c3ccc(Cl)cc3)CC2)nc2ccc(-c3ccnc4c3OCCO4)cc12 [Compound 8A]	< 5 µM
Cc1nc(N[C@H]2CCC[C@@H](NC(=O)OC(C)(C)C)C2)nc2ccc(-c3ccnc4c3OCCO4)cc12 [Compound 11A]	< 5 µM
Cc1nc(N[C@@H]2CCN(C(=O)OC(C)(C)C)[C@@H](C)C2)nc2ccc(-c3ccnc4c3OCCO4)cc12 [Compound 1A]	< 5 µM
Cc1nc(N[C@H]2CC[C@@H](NC(=O)OC(C)(C)C)CC2)nc2ccc(-c3cccc4c3OCC(=O)N4)cc12 [Compound 7C]	5 to 10 µM
Cc1nc(N[C@H]2CC[C@@H](NC(=O)OC(C)(C)C)CC2)nc2ccc(-c3ccnc4c3OCCO4)cc12 [Compound 3A]	< 5 µM
Cc1nc(N[C@H]2CC[C@@H](NC(=O)OC(C)(C)C)CC2)nc2ccc(-c3ccnc4c3OCCO4)c(F)c12 [Compound 9A]	< 5 µM
Cc1nc(N[C@H]2CC[C@@H](NC(=O)OC(C)(C)C)CC2)nc2ccc(-c3cc[n+]([O-])c4c3OCCO4)cc12 [Compound 12A]	5 to 10 µM
Cc1nc(O[C@H]2CC[C@@H](NC(=O)OC(C)(C)C)CC2)nc2ccc(-c3ccnc4c3OCCO4)cc12 [Compound 7A]	< 5 µM
Cc1nc(N[C@H]2C[C@@H](NC(=O)OC(C)(C)C)C2)nc2ccc(-c3ccnc4c3OCCO4)cc12 [Compound 5A]	< 5 µM
Cc1nc(N[C@H]2CC[C@@H](C(=O)NC(C)C)CC2)nc2ccc(-c3cccc4c3OCCO4)cc12 [Compound 3B]	5 to 10 µM
Cc1ccc2ccc(F)c(-c3ccc4nc(N[C@H]5CC[C@@H](NC(=O)OC(C)(C)C)CC5)nc(C)c4c3)c2n1 [Compound 5C]	5 to 10 µM
Cc1nc(N[C@H]2CC[C@H](NC(=O)OC(C)(C)C)CC2)nc2ccc(-c3cccc4c3CCCC4)cc12 [Compound 7B]	5 to 10 µM
Cc1nc(NC2CCN(C(=O)OC(C)(C)C)CC2)nc2ccc(-c3cccc4c3CCCC4)cc12 [Compound 5B]	5 to 10 µM
Cc1nc(N[C@H]2CC[C@@H](C(=O)NC3CCCCC3)CC2)nc2ccc(-c3cccc4c3OCCO4)cc12 [Compound 2B]	5 to 10 µM
Cc1nc(N[C@H]2CC[C@@H](NC(=O)OC(C)(C)C)CC2)nc2ccc(-c3cccc4c3CCCC4)cc12 [Compound 6B]	5 to 10 µM
Cc1nc(NC2CCN(C(=O)OC(C)(C)C)CC2)nc2ccc(-c3ccnc4ccccc34)cc12 [Compound 4C]	5 to 10 µM
Cc1nc(NC2CCC(C(=O)NCc3ccc(Cl)cc3)CC2)nc2ccc(-c3cccc4c3OCCO4)cc12 (stereo not shown) [Compound 1B]	5 to 10 µM
Cc1nc(N[C@H]2C[C@H](NC(=O)OC(C)(C)C)C2)nc2ccc(-c3ccnc4c3OCCO4)cc12 [Compound 6A]	< 5 µM
Cc1nc(N[C@H]2CC[C@@H](NC3Cc4cccc(Cl)c4C3)CC2)nc2ccc(-c3ccnc4c3OCCO4)cc12 (stereo partly shown) [Compound 16A]	< 5 µM
Cc1nc(N[C@H]2CC[C@H](NC(=O)OC(C)(C)C)CC2)nc2ccc(-c3ccnc4c3OCCO4)cc12 [Compound 4A]	< 5 µM
Cc1nc(N[C@@H]2CCN(C(=O)OC(C)(C)C)[C@H](C)C2)nc2ccc(-c3ccnc4c3OCCO4)cc12 [Compound 2A]	< 5 µM
Cc1nc(N[C@H]2CCN(Cc3ccc(Cl)cc3)[C@@H](C)C2)nc2ccc(-c3ccnc4c3OCCO4)cc12 [Compound 15A]	< 5 µM
Cc1nc(N[C@H]2CC[C@@H](NC(=O)OC(C)(C)C)CC2)nc2ccc(-c3c(Cl)cnc4c3OCCO4)cc12 [Compound 10A]	< 5 µM
Cc1nc(N[C@@H]2C[C@H]3CC[C@@H](C2)N3C(=O)c2ccc(Cl)cc2)nc2ccc(-c3ccnc4c3OCCO4)cc12 [Compound 8C]	< 5 µM
Cc1nc(NC2CCN(Cc3ccc(Cl)cc3)CC2)nc2ccc(-c3ccnc4c3OCCO4)cc12 [Compound 13A]	< 5 µM
Cc1nc(NC2CCN(C(=O)c3ccc(Cl)cc3)CC2)nc2ccc(-c3ccnc4c3OCCO4)cc12 [Compound 14A]	< 5 µM
